The values that follow come from US7163954B2, “Substituted naphthyl benzothiophene acids” (Wyeth, priority 2003, dated 2007).

The target of data set [1] is T1, recombinant human plasminogen activator inhibitor-1 (PAI-1) (Homo sapiens, UniProt P05121).
T1 construct: purchased Molecular Innovations, Royal Oak, Mich
The data set can be described thus: Primary screen for the PAI-1 inhibition (residual tPA activity, Spectrozyme-tPA chromogenic substrate). Format: biochemical. The following applies: 25 μM test compound; inhibition of Plasminogen Activator Inhibitor-1. The method, then: Test compounds are dissolved in DMSO at a final concentration of 10 mM, then diluted 100× in physiologic buffer. The inhibitory assay is initiated by the addition of the test compound (1–100 μM final concentration, !maximum DMSO concentration of 0.2%) in a pH 6.6 buffer containing 140 nM recombinant human plasminogen activator inhibitor-1 (PAI-1; Molecular Innovations, Royal Oak, Mich.). Following a 1 hour incubation at room temperature, 70 nM of recombinant human tissue plasminogen activator (tPA) is added, and the combination of the test compound, PAI-1 and tPA is incubated for an additional 30 minutes. Following the second incubation, Spectrozyme-tPA (American Diagnostica, Greenwich, Conn.), a chromogenic substrate for tPA, is added and absorbance read at 405 nm at 0 and 60 minutes. Relative PAI-1 inhibition is equal to the residual tPA activity in the presence of the test compound and PAI-1. Control treatments include the complete inhibition of tPA by PAI-1 at the molar ratio employed (2:1), and the absence of any effect of the test compound on tPA alone.

The structures appear in SMILES notation.

T1 sequence (P05121 24-402): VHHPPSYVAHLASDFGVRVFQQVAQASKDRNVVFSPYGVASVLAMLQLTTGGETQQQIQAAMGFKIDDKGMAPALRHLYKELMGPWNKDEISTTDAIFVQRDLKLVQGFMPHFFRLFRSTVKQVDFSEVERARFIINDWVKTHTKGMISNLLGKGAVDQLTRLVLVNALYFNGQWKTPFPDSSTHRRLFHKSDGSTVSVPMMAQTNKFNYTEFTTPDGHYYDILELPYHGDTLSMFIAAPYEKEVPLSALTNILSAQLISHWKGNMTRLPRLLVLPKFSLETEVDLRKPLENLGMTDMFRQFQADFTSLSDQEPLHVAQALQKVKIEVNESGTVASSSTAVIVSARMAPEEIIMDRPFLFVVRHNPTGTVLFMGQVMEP

On to `CCCCC(=O)c1c(-c2ccc3c(Br)c(OCc4nnn[nH]4)ccc3c2)sc2ccccc12` [Compound 1, 1-{2-[5-Bromo-6-(1H-tetrazol-5-ylmethoxy)-naphthalen-2-yl]-benzo[b]thiophen-3-yl}-pentan-1-one], for which the inhibition at 25 µM in data set [1] stood at 59%. In turn, `CCCCC(=O)c1c(-c2ccc3c(Br)c(OCC(=O)O)ccc3c2)sc2ccccc12` [Compound 2, [1-Bromo-6-(3-pentanoyl-benzo[b]thiophen-2-yl)-naphthalen-2-yloxy]-acetic acid] returned a melting point of 164 to 165 °C. For the same compound, the inhibition at 25 µM in data set [1] turned out to be 69%. Regarding `O=C(Cc1ccccc1)c1c(-c2ccc3c(Br)c(OCc4nnn[nH]4)ccc3c2)sc2ccccc12` [Compound 3, 1-{2-[5-Bromo-6-(1H-tetrazol-5-ylmethoxy)-naphthalen-2-yl]-benzo[b]thiophen-3-yl}-2-phenyl-ethanone], the inhibition at 25 µM in data set [1] came out at 52%. Compound `O=C(O)COc1ccc2cc(-c3sc4ccccc4c3C(=O)Cc3ccccc3)ccc2c1Br` [Compound 4, [1-Bromo-6-(3-phenylacetyl-benzo[b]thiophen-2-yl)-naphthalen-2-yloxy]-acetic acid] came in with a melting point of 170 to 172 °C. In addition, in data set [1], the inhibition at 25 µM came to 54%.

Consider `CC(C)CC(=O)c1c(-c2ccc3c(Br)c(OCc4nnn[nH]4)ccc3c2)sc2ccccc12` [Compound 5, 1-{2-[5-Bromo-6-(1H-tetrazol-5-ylmethoxy)-naphthalen-2-yl]-benzo[b]thiophen-3-yl}-3-methyl-butan-1-one], for which the inhibition at 25 µM in data set [1] was 84%. `CC(C)(C)CC(=O)c1c(-c2ccc3c(Br)c(OCC(=O)O)ccc3c2)sc2ccccc12` [Compound 6, {1-Bromo-6-[3-(3,3-dimethyl-butyryl)-benzo[b]thiophen-2-yl]-naphthalen-2-yloxy}-acetic acid] displayed a melting point of 206 to 207 °C. Also, the inhibition at 25 µM in data set [1] is 77%.
